Experimental findings from patent publication US11390609B2, “Rho-associated protein kinase inhibitor, pharmaceutical composition comprising same, and preparation method and use thereof” (BEIJING TIDE PHARMACEUTICAL CO., LTD., priority 2017, dated 2022) are described below.

The structures appear in SMILES notation.

Usually IC50 stands for the point on the concentration scale where inhibition reaches its midpoint. Low values mean greater potency in that assay, high ones weaker potency in that assay.

The experiment concerns the target ROCK1 (Homo sapiens (Human), UniProt Q13464). Description: ROCK1 kinase IC50 assay (biological test method similar to the ROCK2 assay). Format: biochemical. In short, it runs like this:
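HTRF KinEASE-STK S2 assay with the STK-S2 biotinylated substrate and ATP, at 5× working solutions of 1.5 µM each. Kinase reaction with 9-point compound dilutions ran 2 h at room temperature, followed by 1 h streptavidin-XL665/Cryptate detection. The 665/615 nm ratio was normalised to no-compound and no-kinase wells, and IC50 was obtained by curve fitting.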

Sequence of ROCK1 (Q13464 whole entry, species assumed): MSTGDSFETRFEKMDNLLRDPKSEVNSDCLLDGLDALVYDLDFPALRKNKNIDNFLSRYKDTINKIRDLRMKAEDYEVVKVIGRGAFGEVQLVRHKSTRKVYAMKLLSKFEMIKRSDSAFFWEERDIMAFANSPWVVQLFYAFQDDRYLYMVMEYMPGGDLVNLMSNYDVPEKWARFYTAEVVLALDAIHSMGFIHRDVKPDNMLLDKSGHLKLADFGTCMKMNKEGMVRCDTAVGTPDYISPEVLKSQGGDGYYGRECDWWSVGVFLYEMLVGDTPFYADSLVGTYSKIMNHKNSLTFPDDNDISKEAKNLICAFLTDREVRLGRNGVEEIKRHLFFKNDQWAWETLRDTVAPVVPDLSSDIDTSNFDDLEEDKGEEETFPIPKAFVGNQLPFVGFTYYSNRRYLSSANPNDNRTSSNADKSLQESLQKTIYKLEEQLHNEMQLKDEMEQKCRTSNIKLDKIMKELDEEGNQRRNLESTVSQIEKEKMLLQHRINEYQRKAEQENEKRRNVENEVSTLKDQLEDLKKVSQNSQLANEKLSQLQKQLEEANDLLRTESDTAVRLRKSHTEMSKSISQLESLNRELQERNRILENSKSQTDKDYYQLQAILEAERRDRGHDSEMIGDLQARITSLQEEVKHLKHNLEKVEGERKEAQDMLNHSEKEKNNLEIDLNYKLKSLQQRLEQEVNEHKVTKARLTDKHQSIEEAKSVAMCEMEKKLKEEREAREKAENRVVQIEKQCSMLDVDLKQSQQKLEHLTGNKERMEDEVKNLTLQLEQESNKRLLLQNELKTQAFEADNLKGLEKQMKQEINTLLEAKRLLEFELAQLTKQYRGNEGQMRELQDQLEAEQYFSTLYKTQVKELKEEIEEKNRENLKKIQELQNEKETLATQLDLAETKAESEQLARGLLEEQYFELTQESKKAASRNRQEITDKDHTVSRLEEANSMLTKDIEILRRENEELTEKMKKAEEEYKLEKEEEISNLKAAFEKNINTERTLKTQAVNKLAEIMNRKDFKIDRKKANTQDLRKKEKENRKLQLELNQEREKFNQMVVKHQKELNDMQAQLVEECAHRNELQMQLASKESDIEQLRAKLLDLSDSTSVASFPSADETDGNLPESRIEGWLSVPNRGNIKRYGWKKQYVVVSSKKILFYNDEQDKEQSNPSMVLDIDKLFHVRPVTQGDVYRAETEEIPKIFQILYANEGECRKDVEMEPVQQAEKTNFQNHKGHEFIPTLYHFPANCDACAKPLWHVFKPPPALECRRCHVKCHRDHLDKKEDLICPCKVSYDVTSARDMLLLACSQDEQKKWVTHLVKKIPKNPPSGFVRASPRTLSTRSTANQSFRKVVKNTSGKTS

For the molecule `CN(CC#N)C(=O)c1cc2ccc(-c3nccc(Nc4ccc(-c5cn[nH]c5)cc4)n3)cc2[nH]1` [TDI01430, 6-(4-((4-(1H-pyrazol-4-yl)phenyl)amino)pyrimidin-2-yl)-N-(cyanomethyl)-N-methyl-1H-indole-2-carboxamide], the IC50 is greater than 10 µM.

With `O=C(c1cc2ccc(-c3nccc(Nc4ccc(-c5cn[nH]c5)cc4)n3)cc2[nH]1)N1CC(C(F)(F)F)C1` [TDI01433, (6-(4-((4-(1H-pyrazol-4-yl)phenyl)amino)pyrimidin-2-yl)-1H-indol-2-yl)(3-(trifluoromethyl)azetidin-1-yl)methanone], the IC50 is 1.97 µM.

The molecule `O=C(c1cc2ccc(-c3nccc(Nc4ccc(-c5cn[nH]c5)cc4)n3)cc2[nH]1)N1CC(F)(F)C1` [TDI01434, (6-(4-((4-(1H-pyrazol-4-yl)phenyl)ami-no)pyrimidin-2-yl)-1H-indol-2-yl)(3,3-difluoroazetidin-1-yl)methanone] returned an IC50 greater than 10 µM.

`O=C(c1cc2ccc(-c3nccc(Nc4ccc(-c5cn[nH]c5)cc4)n3)cc2[nH]1)N1CC(C(F)F)C1` [TDI01435, (6-(4-((4-(1H-pyrazol-4-yl)phenyl)amino)pyrimidin-2-yl)-1H-indol-2-yl)(3-(difluoromethyl)azetidin-1-yl)methanone] returned an IC50 of 1.23 µM.

The molecule `CN(CCC#N)C(=O)c1cc2ccc(-c3nccc(Nc4ccc(-c5cn[nH]c5)cc4)n3)cc2[nH]1` [TDI01442, 6-(4-((4-(1H-pyrazol-4-yl)phenyl)amino)pyrimidin-2-yl)-N-(2-cyanoethyl)-N-methyl-1H-indole-2-carboxamide] came in with an IC50 greater than 10 µM.

On to `O=C(N1Cc2ccc(-c3nccc(Nc4ccc(-c5cn[nH]c5)cc4)n3)cc2C1)N1CC(F)(F)C1` [TDI01467], for which the IC50 was greater than 10 µM.

Molecule `Cn1c(C(=O)N2CC(F)(F)C2)cc2ccc(-c3nccc(Nc4ccc(-c5cn[nH]c5)cc4)n3)cc21` [TDI01470, (6-(4-((4-(1H-pyrazol-4-yl)phenyl)amino)pyrimidin-2-yl)-1-methyl-1H-indol-2-yl)(3,3-difluoroazetidin-1-yl)methanone] had a 50% inhibitory concentration (IC50) greater than 10 µM.

In the case of `CCN(CC)C(=O)c1cc2ccc(-c3ncc(OC)c(Nc4ccc(-c5cn[nH]c5)cc4)n3)cc2[nH]1` [TDI01823, 6-(4-((4-(1H-pyrazol-4-yl)phenyl)-amino)-5-methoxy-pyrimidin-2-yl)-N,N-diethyl-1H-indole-2-carboxamide], the IC50 is greater than 10 µM.

As for `N#Cc1cnccc1NC(=O)c1cc2ccc(-c3nccc(Nc4ccc(-c5cn[nH]c5)cc4)n3)cc2[nH]1` [TDI01829B, 6-(4-((4-(1H-pyrazol-4-yl)phenyl)amino)pyrimidin-2-yl)-N-(3-cyanopyridin-4-yl)-1H-indole-2-carboxamide], the IC50 was greater than 10 µM.

`O=C(Nc1ccncc1I)c1cc2ccc(-c3nccc(Nc4ccc(-c5cn[nH]c5)cc4)n3)cc2[nH]1` [TDI01829C, 6-(4-((4-(1H-pyrazol-4-yl)phenyl)-amino)-pyrimidin-2-yl)-N-(3-iodopyridin-4-yl)-1H-indole-2-carboxamide] had an IC50 greater than 10 µM.

Turning to `O=C(c1cc2ccc(-c3nccc(Nc4ccc(-c5cn[nH]c5)c(F)c4)n3)cc2[nH]1)N1CC(F)(F)C1` [TDI01842B, (3,3-difluoroazetidin-1-yl)(6-(4-((3-fluoro-4-(1H-pyrazol-4-yl)phenyl)ami-no)pyrimidn-2-yl)-1H-indol-2-yl)methanone], it took 2.77 µM to reach half-maximal inhibition (IC50).

For `O=C(NC1CCN(c2ccncc2Cl)CC1)c1cc2ccc(-c3nccc(Nc4ccc(-c5cn[nH]c5)cc4)n3)cc2[nH]1` [TDI01847B, 6-(4-((4-(1H-pyrazol-4-yl)phenyl)-amino)-pyrimidin-2-yl)-N-(1-(3-chloropyridin-4-yl)piperidin-4-yl)-1H-indole-2-carboxamide], the IC50 stood at 3.38 µM.

Turning to `O=C(c1cc2ccc(-c3nccc(Nc4ccc(-c5cn[nH]c5)cc4)n3)cc2[nH]1)N1CCO[C@@H](CO)C1` [TDI01852], the IC50 is greater than 10 µM.

For `O=C(c1cc2ccc(-c3nccc(Nc4ccc(-c5cn[nH]c5)cc4)n3)cc2[nH]1)N1CCOC[C@H]1CO` [TDI01853, (R)-(6-(4-((4-(1H-pyrazol-4-yl)phenyl)-amino)-pyrimidin-2-yl)-1H-indol-2-yl)(3-(hydroxy-methyl)-morpholino)-methanone], the IC50 was 2.83 µM.

Molecule `C[C@H](CN)NC(=O)c1cc2ccc(-c3nccc(Nc4ccc(-c5cn[nH]c5)cc4)n3)cc2[nH]1` [TDI01855, (R)-6-(4-((4-(1H-pyrazol-4-yl)phenyl)-amino)-pyrimidin-2-yl)-N-(1-aminopropan-2-yl)-1H-indole-2-carboxamide] registered an IC50 of 5.42 µM.

In turn, `C[C@@H](CN)NC(=O)c1cc2ccc(-c3nccc(Nc4ccc(-c5cn[nH]c5)cc4)n3)cc2[nH]1` [TDI01856, (S)-6-(4-((4-(1H-pyrazol-4-yl)phenyl)-amino)-pyrimidin-2-yl)-N-(1-aminopropan-2-yl)-1H-indole-2-carboxamide] gave an IC50 of 2.04 µM.

As for `Fc1cc(Nc2ccnc(-c3ccc4cc(-c5nccs5)[nH]c4c3)n2)ccc1-c1cn[nH]c1` [TDI01908, N-(3-fluoro-4-(1H-pyrazol-4-yl)phenyl)-2-(2-(thiazol-2-yl)-1H-indol-6-yl)pyrimidin-4-amine], the IC50 was greater than 10 µM.

Take `Cn1c(C(=O)N2CC(F)(F)C2)cc2ccc(-c3ncc(F)c(Nc4ccc(-c5cn[nH]c5)cc4)n3)cc21` [TDI01932]: the IC50 is greater than 10 µM.

`O=C(C1CC(F)(F)C1)N1Cc2ccc(-c3ncc(F)c(Nc4ccc(-c5cn[nH]c5)cc4)n3)cc2C1` [TDI01978, (5-(4-((4-(1H-pyrazol-4-yl)phenyl)amino)-5-fluoropyrimidin-2-yl)isoindolin-2-yl)(3,3-difluorocyclobutyl) methanone] yielded an IC50 greater than 10 µM.
